Assay results reported in article PMC4503722, “Novel Phenotypic Outcomes Identified for a Public Collection of Approved Drugs from a Publicly Accessible Panel of Assays” (PLoS ONE, 2015).
Where two headings read alike, the source gives them in different places.

How the values were obtained:
SNU-C1 = experiment: cells; format: cell-based; conditions: for IC50: read-out: Basal_Viability ATP SNU-C1 summarized IC50
HT-29 = experiment: cells; format: cell-based; conditions: for IC50: read-out: Basal_Viability ATP HT-29 summarized IC50
HCT116 = experiment: cells; format: cell-based; conditions: for IC50: read-out: Basal_Viability ATP HCT116 summarized IC50
RKO = experiment: cells; format: cell-based; conditions: for IC50: read-out: Basal_Viability ATP RKO summarized IC50
[1] = test system: ECFC/ADSC co-culture cell nuclei number; conditions: for IC50: read-out: VEGF_ADSC\ECFC Angio Hoechst NucArea summarized IC50
SW480 = experiment: cells; format: cell-based; conditions: for IC50: read-out: Basal_Viability ATP SW480 summarized IC50
[2] = test system: endothelial tube formation in co-cultures of ECFCs and ADSCs treated with VEGF; experiment: cells; format: cell-based, human; conditions: for IC50: read-out: VEGF_ADSC\ECFC Angio CD31 TubeArea summarized IC50
DLD-1 = experiment: cells; format: cell-based; conditions: for IC50: read-out: Basal_Viability ATP DLD-1 summarized IC50
Colo320 = experiment: cells; format: cell-based; conditions: for IC50: read-out: Basal_Viability ATP Colo 320 summarized IC50
HeLa cells = experiment: cells; format: cell-based
[3] = test system: HCT116 cells treated with a GSK3β inhibitor; experiment: cells; format: cell-based; conditions: assay number 26; GSK3b inhibitor pretreated
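Wherever Hela CellCycMod PI 4N summarized IC50 is given: value tracks stimulation of 4N DNA content.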

## Oc1ccc(Cl)cc1Cc1cc(Cl)ccc1O [NCGC00091325-09]
SNU-C1
  IC50: 546 nM
HT-29
  IC50: 4690 nM
HCT116
  IC50: 1550 nM
RKO
  IC50: 1930 nM
[1]
  IC50: 6000 nM
SW480
  IC50: 2500 nM
[2]
  IC50: 2320 nM
DLD-1
  IC50: 862 nM
Colo320
  IC50: 1210 nM

## CN(C)c1ccc(C(=C2C=CC(=[N+](C)C)C=C2)c2ccc(N(C)C)cc2)cc1 [NCGC00091112-09]
SNU-C1; assay number 30, basal
  IC50: 394 nM
HT-29; assay number 28, basal
  IC50: 466 nM
HCT116; assay number 25, basal
  IC50: 514 nM
RKO; assay number 29, basal
  IC50: 994 nM
[1]
  IC50: 1830 nM
SW480; assay number 24, basal
  IC50: 528 nM
[2]
  IC50: 186 nM
DLD-1; assay number 23, basal
  IC50: 471 nM
Colo320; assay number 27, basal
  IC50: 2050 nM

## Nc1nc(Cl)nc2c1ncn2[C@@H]1O[C@H](CO)[C@@H](O)[C@@H]1F [NCGC00164553-02]
HeLa cells; assay number 14, 2N
  Hela CellCycMod PI 2N IC50/EC50: > 10000 nM
HeLa cells; assay number 15, S phase
  Hela CellCycMod PI S Phase IC50/EC50: > 10000 nM
HeLa cells; assay number 16, 4N
  Hela CellCycMod PI 4N IC50/EC50: > 10000 nM
HeLa cells; assay number 17, MI
  Hela CellCycMod PI MI IC50/EC50: > 10000 nM
HeLa cells; assay number 18, cell number
  Hela CellCycMod PI Cell Number IC50/EC50: 5.16 nM
SNU-C1; assay number 30, basal
  Basal_Viability ATP SNU-C1 IC50/EC50: > 20000 nM
HT-29; assay number 28, basal
  Basal_Viability ATP HT-29 IC50/EC50: > 20000 nM
HCT116; assay number 25, basal
  Basal_Viability ATP HCT116 IC50/EC50: 1 nM
RKO; assay number 29, basal
  Basal_Viability ATP RKO IC50/EC50: 1 nM
DLD-1; assay number 23, basal
  Basal_Viability ATP DLD-1 IC50/EC50: 163.6 nM
Colo320; assay number 27, basal
  Basal_Viability ATP Colo 320 IC50/EC50: > 20000 nM
[3]
  GSK3b inh pretreated_Viability ATP HCT116 IC50/EC50: 1 nM

## C/C(=C(/OCCOc1ccc(Cl)cc1)c1ccc(Cl)cc1Cl)n1ccnc1 [NCGC00249921-01]
SNU-C1
  Basal_Viability ATP SNU-C1 IC50/EC50: 2345.7 nM
HT-29
  Basal_Viability ATP HT-29 IC50/EC50: > 6667 nM
HCT116
  Basal_Viability ATP HCT116 IC50/EC50: > 6666.7 nM
RKO
  Basal_Viability ATP RKO IC50/EC50: > 6666.7 nM
[1]
  VEGF_ADSC\ECFC Angio Hoechst NucArea IC50/EC50: 9416 nM
SW480
  Basal_Viability ATP SW480 IC50/EC50: 8461.1 nM
[2]
  VEGF_ADSC\ECFC Angio CD31 TubeArea IC50/EC50: 5839.8 nM
DLD-1
  Basal_Viability ATP DLD-1 IC50/EC50: 4180.4 nM
Colo320
  Basal_Viability ATP Colo 320 IC50/EC50: 5855.1 nM

## O=C1C(=O)c2ccccc2C(O)=C1C1CCC(c2ccc(Cl)cc2)CC1 (centres unmarked) [NCGC00016961-06]
HeLa cells; assay number 14, 2N
  Hela CellCycMod PI 2N IC50/EC50: > 10000 nM
HeLa cells; assay number 16, 4N
  Hela CellCycMod PI 4N IC50/EC50: > 10000 nM
HeLa cells; assay number 17, MI
  Hela CellCycMod PI MI IC50/EC50: > 10000 nM
HeLa cells; assay number 18, cell number
  Hela CellCycMod PI Cell Number IC50/EC50: > 10000 nM
SNU-C1; assay number 30, basal
  Basal_Viability ATP SNU-C1 IC50/EC50: 367.5 nM
HT-29; assay number 28, basal
  Basal_Viability ATP HT-29 IC50/EC50: 411.2 nM
HCT116; assay number 25, basal
  Basal_Viability ATP HCT116 IC50/EC50: 138.4 nM
RKO; assay number 29, basal
  Basal_Viability ATP RKO IC50/EC50: 114.2 nM
[1]
  VEGF_ADSC\ECFC Angio Hoechst NucArea IC50/EC50: > 10000 nM
SW480; assay number 24, basal
  Basal_Viability ATP SW480 IC50/EC50: 94.6 nM
[2]
  VEGF_ADSC\ECFC Angio CD31 TubeArea IC50/EC50: 5184.5 nM
DLD-1; assay number 23, basal
  Basal_Viability ATP DLD-1 IC50/EC50: 83.8 nM
Colo320; assay number 27, basal
  Basal_Viability ATP Colo 320 IC50/EC50: 176.4 nM

## CS(=O)(=O)O.Cc1ccc2c(c1)c1c3n2CCNC3CCC1 (centres unmarked) [NCGC00024749-04]
HeLa cells; assay number 14, 2N
  Hela CellCycMod PI 2N IC50/EC50: > 10000 nM
HeLa cells; assay number 15, S phase
  Hela CellCycMod PI S Phase IC50/EC50: > 10000 nM
HeLa cells; assay number 16, 4N
  Hela CellCycMod PI 4N IC50/EC50: > 10000 nM
HeLa cells; assay number 17, MI
  Hela CellCycMod PI MI IC50/EC50: > 10000 nM
HeLa cells; assay number 18, cell number
  Hela CellCycMod PI Cell Number IC50/EC50: > 10000 nM
SNU-C1; assay number 30
  Basal_Viability ATP SNU-C1 IC50/EC50: 2476.3 nM
HT-29; assay number 28
  Basal_Viability ATP HT-29 IC50/EC50: > 20000 nM
HCT116; assay number 25, basal
  Basal_Viability ATP HCT116 IC50/EC50: > 20000 nM
RKO; assay number 29
  Basal_Viability ATP RKO IC50/EC50: > 20000 nM
SW480; assay number 24
  Basal_Viability ATP SW480 IC50/EC50: > 20000 nM
DLD-1; assay number 23
  Basal_Viability ATP DLD-1 IC50/EC50: > 20000 nM
Colo320; assay number 27
  Basal_Viability ATP Colo 320 IC50/EC50: > 20000 nM

## O=c1[nH]cc(F)c(=O)[nH]1 [NCGC00015442-15]
HeLa cells; assay number 14, 2N, read-out: Hela CellCycMod PI 2N summarized IC50
  IC50: > 10000 nM
HeLa cells; assay number 15, S phase, read-out: Hela CellCycMod PI S Phase summarized IC50
  IC50: > 10000 nM
HeLa cells; assay number 16, 4N, read-out: Hela CellCycMod PI 4N summarized IC50
  IC50: > 10000 nM
HeLa cells; assay number 17, MI, read-out: Hela CellCycMod PI MI summarized IC50
  IC50: > 10000 nM
HeLa cells; assay number 18, cell number, read-out: Hela CellCycMod PI Cell Number summarized IC50
  IC50: > 10000 nM
SNU-C1; assay number 30, basal
  IC50: > 20000 nM
HT-29; assay number 28, basal
  IC50: > 20000 nM
RKO; assay number 29, basal
  IC50: > 20000 nM
[1]
  IC50: > 10000 nM
SW480; assay number 24, basal
  IC50: > 20000 nM
[2]
  IC50: > 10000 nM
DLD-1; assay number 23, basal
  IC50: > 20000 nM
Colo320; assay number 27, basal
  IC50: > 20000 nM

## Fc1ccc(C(OCCN2CCN(CCCc3ccccc3)CC2)c2ccc(F)cc2)cc1 [NCGC00015300-10]
HeLa cells; 2N
  IC50/EC50, Hela CellCycMod PI 2N (assay number 14): > 10000 nM
HeLa cells; 4N
  IC50/EC50, Hela CellCycMod PI 4N (assay number 16): > 10000 nM
HeLa cells; Cell Number
  IC50/EC50, Hela CellCycMod PI Cell Number (assay number 18): 3200 nM
HeLa cells; MI
  IC50/EC50, Hela CellCycMod PI MI (assay number 17): > 10000 nM
HeLa cells; S Phase
  IC50/EC50, Hela CellCycMod PI S Phase (assay number 15): > 10000 nM
SNU-C1; basal
  IC50/EC50, Basal_Viability ATP SNU-C1 (assay number 30): 1817 nM
HT-29; basal
  IC50/EC50, Basal_Viability ATP HT-29 (assay number 28): 1485.1 nM
HCT116; basal
  IC50/EC50, Basal_Viability ATP HCT116 (assay number 25): 4871.8 nM
RKO; basal
  IC50/EC50, Basal_Viability ATP RKO (assay number 29): 113 nM
SW480; basal
  IC50/EC50, Basal_Viability ATP SW480 (assay number 24): 2068 nM
DLD-1; basal
  IC50/EC50, Basal_Viability ATP DLD-1 (assay number 23): 903.2 nM
Colo320; basal
  IC50/EC50, Basal_Viability ATP Colo 320 (assay number 27): > 20000 nM

## Cc1cc(C(C#N)c2ccc(Cl)cc2)c(Cl)cc1NC(=O)c1cc(I)cc(I)c1O (centres unmarked) [NCGC00166312-02]
SNU-C1
  Basal_Viability ATP SNU-C1 IC50/EC50: 43.8 nM
HT-29
  Basal_Viability ATP HT-29 IC50/EC50: 125.5 nM
HCT116
  Basal_Viability ATP HCT116 IC50/EC50: 97.75 nM
RKO
  Basal_Viability ATP RKO IC50/EC50: 197.1 nM
[1]
  VEGF_ADSC\ECFC Angio Hoechst NucArea IC50/EC50: 7360 nM
SW480
  Basal_Viability ATP SW480 IC50/EC50: 46 nM
[2]
  VEGF_ADSC\ECFC Angio CD31 TubeArea IC50/EC50: > 10000 nM
DLD-1
  Basal_Viability ATP DLD-1 IC50/EC50: 69 nM
Colo320
  Basal_Viability ATP Colo 320 IC50/EC50: 116 nM
